Experimental data: patent US20140329863A1 (priority 2011, published 2014)
Where “and” joins values, the source holds several entries; their conditions need not be identical. Identical values can stand only once. Like-named read-outs stand apart in the source and are kept apart here.

Key:
[1] = test system: PrP^Sc in dividing ScN2a-cl3 cells; assay type: cell-based, mouse
[2] = in vitro; conditions: mouse
[3] = test system: PrP^Sc in ScN2a-cl3 cells; assay type: cell-based, mouse; conditions: read-out: Potency (nM) Western (EC50); Western immunoblots, dividing ScN2a-cl3 cells
[4] = test system: PrP^Sc in nondividing ScN2a-cl3 cells; assay type: cell-based, mouse; conditions: read-out: Non-Dividing ELISA EC50 (μM) Mean (n = 3); ScN2a-c13 non-dividing cells; mean n = 3
[5] = test system: N2a-cl3 cells; test: cells; conditions: Mus musculus, N2a-cl3, read-out: Dividing Calcein EC50 (μM) Mean (n = 3)
[6] = Hepatic microsomal stability, rat; conditions: […]
[7] = read-out: Antiprion activity EC50, thienopyridine analogs

Compound | EC50 [1, 7] | CC50 [2] [nM] | also measured
COc1ccc(NC(=O)c2sc3nc(-c4cccs4)ccc3c2N)cc1OC [IND-0024573] | 396 nM | > 10000 | 
CSc1ccc(NC(=O)c2sc3nc(-c4cccs4)ccc3c2N)cc1 [IND-0024576] | 77 nM | > 10000 | 
Nc1c(C(=O)Nc2cc(F)ccc2F)sc2nc(-c3cccs3)ccc12 [IND-0024581] | 2060 nM | > 10000 | 
O=C(Nc1nc(-c2ccc3ccccc3c2)cs1)C1CC1 [IND-0030883] |  | > 10000 | EC50 ([1]; read-out: Potency (nM) ELISA (EC50), PrP^Sc ELISA, dividing ScN2a-cl3 cells): 913 nM; EC50 [3]: 570 nM
COc1ccc(-c2ccc3c(N)c(C(=O)Nc4ccc5c(c4)OCCO5)sc3n2)cc1 [IND-0035833] | > 10000 nM | > 10000 | 
COc1ccc(-c2ccc3c(N)c(C(=O)Nc4ccc(F)cc4)sc3n2)cc1 [IND-0035860] | 57 nM and 59 nM | > 10000 | 
COc1ccc(-c2ccc3c(N)c(C(=O)Nc4ccc(C(C)=O)cc4)sc3n2)cc1 [IND-0037769] | 97 nM | > 10000 | 
COc1ccc(-c2ccc3c(N)c(C(=O)NCCc4ccc(OC)c(OC)c4)sc3n2)cc1 [IND-0037771] | 419 nM | > 10000 | 
COc1ccc(CNC(=O)c2sc3nc(-c4ccc(OC)cc4)ccc3c2N)cc1 [IND-0040541] | > 10000 nM | > 10000 | 
Nc1c(C(=O)Nc2ccc(F)cc2)sc2nc(-c3ccc4c(c3)OCO4)ccc12 [IND-0042063] | 613 nM | > 10000 | 
COc1cc(NC(=O)c2sc3nc(-c4cccs4)ccc3c2N)cc(OC)c1OC [IND-0042103] | > 10000 nM | > 10000 | 
COc1ccc(-c2ccc3c(N)c(C(=O)Nc4ccc(F)cc4)sc3n2)cc1OC [IND-0044746] | 227 nM | > 10000 | 
COc1ccc(Nc2nc(-c3ccc(OC)c(OC)c3)cs2)nc1 [compound 13, [4-(3,4-dimethoxyphenyl)-thiazol-2-yl]-(5-methoxypyridin-2-yl)-amine] |  |  | EC50 ([1]; read-out: Dividing ELISA EC50 (μM) 3rd Expt., ScN2a-cl3 dividing cells, 3rd determination): 917 nM; EC50 [4]: > 32 µM; EC50 [5]: > 32 µM; Microsome stability T1/2 [6]: 45 min
